Measurements from patent US20080015237A1 (ASTRAZENECA AB, priority 2006, published 2008).

Biological target: human Kv1.5 channel (Homo sapiens, UniProt P22460)
Test: Test A: Rb+ efflux assay
Format: cell-based
Conditions: CHO cells stably transfected with cDNA for human Kv1.5
Description: This assay identifies compounds that block the human Kv1.5 channel potassium channel heterologously expressed in Chinese Hamster Ovary (CHO) cells by means of Rb+ ion efflux using Flame Atomic Absorption Spectroscopy. For experimental studies, CHO cells stably transfected with cDNA for human Kv1.5 were grown as confluent layers in Falcon, 384-well tissue culture-treated black-walled clear-bottomed plates and the plates were incubated overnight at 37° C. in a cell culture incubator.
After incubating overnight the cell plates were washed and a buffer containing Rb+ ions were added to the cell plates. The plates were then incubated for another 3-4 hours in a CO2-incubator (37° C.). Following this incubation period plates were washed, compounds were added and subsequently a buffer containing elevated K+ concentrations were added in order to activate the Kv1.5 channel. Following a short incubation time, aliquots of the supernatants were transferred to supernatant plates for subsequent determination of the Rb+ content using Atomic Absorption Spectrometry (ICR8000 instrument, Aurora Biomed Inc.).

human Kv1.5 channel, sequence (P22460 whole entry): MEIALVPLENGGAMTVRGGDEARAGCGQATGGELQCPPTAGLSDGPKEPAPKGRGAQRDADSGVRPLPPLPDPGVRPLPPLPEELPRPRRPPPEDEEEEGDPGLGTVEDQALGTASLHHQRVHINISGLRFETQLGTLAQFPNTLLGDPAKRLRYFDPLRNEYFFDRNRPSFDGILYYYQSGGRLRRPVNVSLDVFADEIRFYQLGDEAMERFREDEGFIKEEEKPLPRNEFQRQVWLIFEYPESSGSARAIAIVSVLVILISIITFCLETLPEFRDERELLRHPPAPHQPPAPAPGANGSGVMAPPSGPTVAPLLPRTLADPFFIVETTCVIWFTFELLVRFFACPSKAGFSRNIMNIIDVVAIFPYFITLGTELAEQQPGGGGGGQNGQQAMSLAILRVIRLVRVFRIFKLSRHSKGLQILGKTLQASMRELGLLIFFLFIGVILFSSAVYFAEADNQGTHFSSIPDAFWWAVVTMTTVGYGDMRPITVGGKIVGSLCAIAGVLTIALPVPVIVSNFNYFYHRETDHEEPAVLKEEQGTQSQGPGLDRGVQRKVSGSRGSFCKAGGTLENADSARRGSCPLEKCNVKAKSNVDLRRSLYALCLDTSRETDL

Structure (SMILES)	IC50 [nM]
CN(C)c1ccc(CNC(=O)C2c3ccccc3C(=O)N2Cc2cc(C(F)(F)F)cc(C(F)(F)F)c2)cc1 (stereo not drawn) [2-[3,5-bis(trifluoromethyl)benzyl]-N-[4-(dimethylamino)benzyl]-3-oxoisoindoline-1-carboxamide]	1800
O=C(NCc1ccc(F)cc1)C1c2ccccc2C(=O)N1C(c1ccncc1)c1ccc(Cl)cc1 (stereo not drawn) [2-[(4-chlorophenyl)(pyridin-4-yl)methyl]-N-(4-fluorobenzyl)-3-oxoisoindoline-1-carboxamide]	2100
CNC(=O)C1c2cc(Br)ccc2C(=O)N1Cc1ccccc1C1CCCC1 (stereo not drawn) [6-bromo-2-(2-cyclopentylbenzyl)-N-methyl-3-oxoisoindoline-1-carboxamide]	2700
O=C(NCCCC(F)F)C1c2cc(Cl)ccc2C(=O)N1Cc1ccccc1C1CCCC1 (stereo not drawn) [6-chloro-2-(2-cyclopentylbenzyl)-N-(4,4-difluorobutyl)-3-oxoisoindoline-1-carboxamide]	1300
CC(CN1C(=O)c2ccc(Cl)cc2C1C(=O)NCCCC(F)(F)F)c1ccc(Cl)cc1 (stereo not drawn) [6-chloro-2-[2-(4-chlorophenyl)propyl]-3-oxo-N-(4,4,4-trifluorobutyl)isoindoline-1-carboxamide]	460
CC(CN1C(=O)c2ccc(Cl)cc2C1C(=O)NCc1cccnc1)c1ccc(Cl)cc1 (stereo not drawn) [6-chloro-2-[2-(4-chlorophenyl)propyl]-3-oxo-N-(pyridin-3-ylmethyl)isoindoline-1-carboxamide]	680
CC(CN1C(=O)c2ccc(Cl)cc2C1C(=O)NCc1ccc(C(F)(F)F)nc1)c1ccc(Cl)cc1 (stereo not drawn) [6-chloro-2-[2-(4-chlorophenyl)propyl]-3-oxo-N-{[6-(trifluoromethyl)pyridin-3-yl]methyl}isoindoline-1-carboxamide]	420
CC(CN1C(=O)c2ccc(Cl)cc2C1C(=O)NCc1ccc(S(C)(=O)=O)cc1)c1ccc(Cl)cc1 (stereo not drawn) [6-chloro-2-[2-(4-chlorophenyl)propyl]-N-[4-(methylsulfonyl)benzyl]-3-oxoisoindoline-1-carboxamide]	2800
C[C@H](c1ccccc1)N1C(=O)c2ccc(Cl)cc2C1C(=O)NCCCC(F)(F)F (stereo partly drawn) [6-chloro-3-oxo-2-[(1R)-1-phenylethyl]-N-(4,4,4-trifluorobutyl)isoindoline-1-carboxamide]	2000
O=C(NCCCC(F)(F)F)C1c2cc(Cl)ccc2C(=O)N1Cc1ccccc1C(F)(F)F (stereo not drawn) [6-chloro-3-oxo-N-(4,4,4-trifluorobutyl)-2-[2-(trifluoromethyl)benzyl]isoindoline-1-carboxamide]	2500
CC(C)(CO)CN1C(=O)c2ccc(Cl)cc2C1C(=O)NCc1cccc(Cl)c1 (stereo not drawn) [6-chloro-N-(3-chlorobenzyl)-2-(3-hydroxy-2,2-dimethylpropyl)-3-oxoisoindoline-1-carboxamide]	2100
CC(C)(CO)CN1C(=O)c2ccc(Cl)cc2C1C(=O)NCc1cccc(OC(F)F)c1 (stereo not drawn) [6-chloro-N-[3-(difluoromethoxy)benzyl]-2-(3-hydroxy-2,2-dimethylpropyl)-3-oxoisoindoline-1-carboxamide]	410
CC(C)(CO)CN1C(=O)c2ccc(F)cc2C1C(=O)NCc1cccc(C(F)(F)F)c1 (stereo not drawn) [6-fluoro-2-(3-hydroxy-2,2-dimethylpropyl)-3-oxo-N-[3-(trifluoromethyl)benzyl]isoindoline-1-carboxamide]	1700
O=C(NCc1ccccc1)C1c2cc(Br)ccc2C(=O)N1Cc1ccccc1 (stereo not drawn) [N,2-dibenzyl-6-bromo-3-oxoisoindoline-1-carboxamide]	840
CC(CN1C(=O)c2ccccc2C1C(=O)NCc1ccc2c(c1)OCO2)c1ccc(Cl)cc1 (stereo not drawn) [N-(1,3-benzodioxol-5-ylmethyl)-2-[2-(4-chlorophenyl)propyl]-3-oxoisoindoline-1-carboxamide]	620
CC(CN1C(=O)c2ccccc2C1C(=O)NCc1ccccc1Cl)c1ccc(Cl)cc1 (stereo not drawn) [N-(2-chlorobenzyl)-2-[2-(4-chlorophenyl)propyl]-3-oxoisoindoline-1-carboxamide]	750
CC(C)(C)CN1C(=O)c2ccccc2C1C(=O)NCc1ccc(Cl)c(Cl)c1 (stereo not drawn) [N-(3,4-dichlorobenzyl)-2-(2,2-dimethylpropyl)-3-oxoisoindoline-1-carboxamide]	2500
CC(C)(C)CN1C(=O)c2ccccc2C1C(=O)NCc1cccc(Cl)c1 (stereo not drawn) [N-(3-chlorobenzyl)-2-(2,2-dimethylpropyl)-3-oxoisoindoline-1-carboxamide]	2900
CC(C)(CO)CN1C(=O)c2ccc(F)cc2C1C(=O)NCc1cccc(Cl)c1 (stereo not drawn) [N-(3-chlorobenzyl)-6-fluoro-2-(3-hydroxy-2,2-dimethylpropyl)-3-oxoisoindoline-1-carboxamide]	340
O=C(NCCCC(F)F)C1c2ccccc2C(=O)N1C(c1ccccc1)c1ccccc1 (stereo not drawn) [N-(4,4-difluorobutyl)-2-(diphenylmethyl)-3-oxoisoindoline-1-carboxamide]	8000
Cc1c(OCF)ccc2c1C(=O)N(CC(C)c1ccc(Cl)cc1)C2C(=O)NC(C)(C)C (stereo not drawn) [N-(tert-butyl)-2-[2-(4-chlorophenyl)propyl]-5-(fluoromethoxy)-4-methyl-3-oxoisoindoline-1-carboxamide]	3000
Cn1nc(CN2C(=O)c3ccccc3C2C(=O)NC(C)(C)C)cc1-c1ccccc1 (stereo not drawn) [N-(tert-butyl)-2-[(1-methyl-5-phenyl-1H-pyrazol-3-yl)methyl]-3-oxoisoindoline-1-carboxamide]	2500
Cc1c(O)ccc2c1C(=O)N(Cc1ccccc1-c1ccc(Cl)c(Cl)c1)C2C(=O)NC(C)(C)C (stereo not drawn) [N-(tert-butyl)-2-[(3′,4′-dichlorobiphenyl-2-yl)methyl]-5-hydroxy-4-methyl-3-oxoisoindoline-1-carboxamide]	720
CC(C)(C)NC(=O)C1c2ccccc2C(=O)N1Cc1ccccc1-c1ccc(F)c(F)c1 (stereo not drawn) [N-(tert-butyl)-2-[(3′,4′-difluorobiphenyl-2-yl)methyl]-3-oxoisoindoline-1-carboxamide]	2200
Cc1c(O)ccc2c1C(=O)N(Cc1ccccc1-c1ccc(F)c(F)c1)C2C(=O)NC(C)(C)C (stereo not drawn) [N-(tert-butyl)-2-[(3′,4′-difluorobiphenyl-2-yl)methyl]-5-hydroxy-4-methyl-3-oxoisoindoline-1-carboxamide]	2000
CC(C)(C)NC(=O)C1c2ccccc2C(=O)N1Cc1cc(F)ccc1-c1ccc(F)cc1 (stereo not drawn) [N-(tert-butyl)-2-[(4,4′-difluorobiphenyl-2-yl)methyl]-3-oxoisoindoline-1-carboxamide]	5600
CC(C)(C)NC(=O)C1c2ccccc2C(=O)N1Cc1cc(F)ccc1-c1ccccc1 (stereo not drawn) [N-(tert-butyl)-2-[(4-fluorobiphenyl-2-yl)methyl]-3-oxoisoindoline-1-carboxamide]	5200
CC(C)(C)NC(=O)C1c2ccccc2C(=O)N1Cc1ccc(F)cc1-c1ccc(F)cc1 (stereo not drawn) [N-(tert-butyl)-2-[(4′,5-difluorobiphenyl-2-yl)methyl]-3-oxoisoindoline-1-carboxamide]	9300
CC(C)(C)NC(=O)C1c2ccccc2C(=O)N1Cc1ccccc1-c1ccc(F)cc1 (stereo not drawn) [N-(tert-butyl)-2-[(4′-fluorobiphenyl-2-yl)methyl]-3-oxoisoindoline-1-carboxamide]	7300
CC(C)(C)NC(=O)C1c2ccccc2C(=O)N1Cc1ccc(F)cc1-c1ccccc1 (stereo not drawn) [N-(tert-butyl)-2-[(5-fluorobiphenyl-2-yl)methyl]-3-oxoisoindoline-1-carboxamide]	13000
